From patent US7183295B2, “PPAR-activating compound and pharmaceutical composition comprising the compound” (Kowa Co., Ltd., priority 2003, dated 2007) come the findings set out here.

Type in all cases: cell-based
Assay [1] deals with T1, human PPARδ (137–441aa) ligand binding domain (Homo sapiens, UniProt Q03181).
T1 construct: δ (137–441aa); expressed in transfected cells; host or cells: COS-7
T1 sequence (Q03181 137-441): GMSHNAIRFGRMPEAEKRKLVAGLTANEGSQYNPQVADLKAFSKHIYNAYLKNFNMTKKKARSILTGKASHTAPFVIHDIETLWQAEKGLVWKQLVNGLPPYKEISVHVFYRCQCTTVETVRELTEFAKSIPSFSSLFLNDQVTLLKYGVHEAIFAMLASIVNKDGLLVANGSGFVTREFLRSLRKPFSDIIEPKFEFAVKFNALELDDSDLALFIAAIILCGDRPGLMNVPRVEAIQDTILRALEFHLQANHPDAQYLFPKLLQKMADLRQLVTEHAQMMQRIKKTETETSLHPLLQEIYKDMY
The experiment in a line: PPAR transfection (Gal4-LBD luciferase reporter) assay, hPPARδ. Conditions: for EC50: transfected COS-7 cells, 16 hours, luciferase activity, read-out: hPPAR, EC50 δ (agonist activity); for activation factor, hPPARδ (FIGS. 1 to 5): at 10-fold concentration of EC50 value in activation of hPPARα, ratio to DMSO control. On the procedure: (§1) COS-7 cells, which is African green monkey kidney cell line, were used for all transfection assays. Cells were cultured in DMEM medium supplemented with 10% fetal bovine serum, glutamic acid, and an antibiotic under humidified 5% CO2 atmosphere.
(§2) Cells were transfected by lipofectamine reagent with a mixture containing expression plasmid, firefly luciferase reporter plasmid. And a β-galactosidase expression plasmid used as an internal control for transfection efficiency.
(§3) Transiently transfected cells were incubated with DMEM with 0.2% FCS with or without compound. And after 16 hours, luciferase activity and β-galactosidase activity of cell lysate were measured.
(§4) Each compound was dissolved in and diluted with dimethyl sulfoxide (DMSO), and the DMSO concentration of the DMEM medium (containing 0.2% serum) was adjusted to 0.1% upon treatment of cells.

For assay [2], the target named is T2, human PPARγ (182–505aa) ligand binding domain (Homo sapiens, UniProt P37231).
T2 construct: γ(182–505aa); expressed in transfected cells; host or cells: COS-7
T2 sequence (P37231 182-505): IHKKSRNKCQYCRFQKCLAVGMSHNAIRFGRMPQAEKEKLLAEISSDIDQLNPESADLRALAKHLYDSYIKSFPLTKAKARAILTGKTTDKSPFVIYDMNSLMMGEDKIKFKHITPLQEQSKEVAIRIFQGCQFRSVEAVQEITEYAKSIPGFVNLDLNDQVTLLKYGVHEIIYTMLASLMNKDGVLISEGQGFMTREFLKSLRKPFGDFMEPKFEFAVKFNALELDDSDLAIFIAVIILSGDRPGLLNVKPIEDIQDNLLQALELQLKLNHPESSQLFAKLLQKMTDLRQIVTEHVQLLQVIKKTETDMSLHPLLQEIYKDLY
As to the kind of experiment: PPAR transfection (Gal4-LBD luciferase reporter) assay, hPPARγ. Conditions: for EC50: transfected COS-7 cells, 16 hours, luciferase activity, read-out: hPPAR, EC50 γ (agonist activity); for activation factor, hPPARγ (FIGS. 1 to 5): at 10-fold concentration of EC50 value in activation of hPPARα, ratio to DMSO control. On the procedure: as §1, §2, §3, §4
(In general: Reporter assays use an easily measured gene product as a stand-in for the process of interest.)

Assay [3] addresses T3, human PPARα (166–467aa) ligand binding domain (Homo sapiens, UniProt Q07869).
T3 construct: human PPARα (166–467aa); expressed in transfected cells; host or cells: COS-7
T3 sequence (Q07869 166-467): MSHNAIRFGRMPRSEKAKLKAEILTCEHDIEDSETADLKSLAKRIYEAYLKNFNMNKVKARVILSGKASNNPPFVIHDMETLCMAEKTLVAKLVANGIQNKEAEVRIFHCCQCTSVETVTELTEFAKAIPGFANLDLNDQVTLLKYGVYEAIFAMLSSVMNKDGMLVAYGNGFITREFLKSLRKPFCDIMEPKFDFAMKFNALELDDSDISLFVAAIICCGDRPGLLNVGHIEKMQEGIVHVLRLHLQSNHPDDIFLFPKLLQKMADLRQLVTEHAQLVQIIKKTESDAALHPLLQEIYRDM
The experiment in a line: PPAR transfection (Gal4-LBD luciferase reporter) assay, hPPARα. Conditions: transfected COS-7 cells, 16 hours, luciferase activity; read-out: hPPAR; EC50 α (agonist activity). The method, then:
as §1, §2, §3, §4

On to `CCC(Oc1cccc(CCN(CCOc2ccccc2)c2nc3ccccc3o2)c1)C(=O)O` (stereo not drawn) [Example 41, 2-[3-[2-[N-(Benzoxazol-2-yl)-N-2-phenoxyethyl]aminoethyl]phenoxy]butyric acid], for which the EC50 in assay [1] was over 50000 nM; in assay [2], 2000 nM; in assay [3] it was 40 nM.

In the case of `CC(Oc1cccc(CN(CCOc2ccccc2)c2nc3ccccc3o2)c1)C(=O)O` (stereo not drawn) [Example 18, 2-[3-[[N-(Benzoxazol-2-yl)-N-2-phenoxyethyl]aminomethyl]phenoxy]propionic acid], the EC50 in assay [1] is over 100000 nM; in assay [2], 1200 nM; in assay [3], 70 nM.

`CC(C)(Oc1ccc(CCCN(CCc2ccccc2)C(=O)c2nc3ccccc3s2)cc1)C(=O)O` [Compound B, reference compound]: in assay [1], the “activation factor, hPPARδ (FIGS. 1 to 5)” value is “strongly activate”. Further, the results for the EC50 in assay [1], in assay [2] and in assay [3] were 900 nM, 700 nM and 120 nM, respectively. In addition, in assay [2], the “activation factor, hPPARγ (FIGS. 1 to 5)” value was “strongly activate”.

Consider `COc1ccc2oc(N(CCOc3ccccc3)CCc3cccc(OC(C)C(=O)O)c3)nc2c1` (stereo not drawn) [Example 44, 2-[3-[2-[N-(5-Methoxybenzoxazol-2-yl)-N-2-phenoxyethyl]aminoethyl]phenoxy]propionic acid], for which the EC50 in assay [1] was 1600 nM; in assay [2], over 100000 nM; in assay [3], 80 nM.

Turning to `CC(Oc1cccc(CN(CCCOc2ccccc2)c2nc3ccccc3o2)c1)C(=O)O` (stereo not drawn) [Example 9, 2-[3-[[N-(Benzoxazol-2-yl)-N-3-phenoxypropyl]aminomethyl]phenoxy]propionic acid], the EC50 in assay [1] came to 2400 nM; in assay [2], 1200 nM; in assay [3] it was 10 nM.

Take `CCC(Oc1cccc(CCN(CCOc2ccc(OC)cc2)c2nc3cc(F)ccc3o2)c1)C(=O)O` (stereo not drawn) [Example 46, 2-[3-[2-[N-(5-Fluorobenzoxazol-2-yl)-N-2-(4-methoxyphenoxy)ethyl]aminoethyl]phenoxy]butyric acid]: the EC50 is 1800 nM in assay [1], over 100000 nM in assay [2] and 10 nM in assay [3].

Regarding `CCC(Oc1cccc(CN(CCOc2ccc(Cl)cc2)c2nc3ccccc3o2)c1)C(=O)O` (stereo not drawn) [Example 2, 2-[3-[[N-(Benzoxazol-2-yl)-N-2-(4-chlorophenoxy)ethyl]aminomethyl]phenoxy]butyric acid], in assay [1], the “activation factor, hPPARδ (FIGS. 1 to 5)” value was “substantially no activation” and the EC50 is 2500 nM. In assay [2], the “activation factor, hPPARγ (FIGS. 1 to 5)” value is given as “substantially no activation” and the EC50 stood at 7300 nM. In addition, in assay [3], the EC50 worked out at 10 nM.

On to `COc1ccc(OCCCN(Cc2cccc(OC(C)C(=O)O)c2)c2nc3cc(Cl)ccc3o2)cc1` (stereo not drawn) [Example 204], for which the EC50 in assay [1] turned out to be 1800 nM; in assay [2] it was 1600 nM; in assay [3] it was 10 nM.

As to `COc1ccc(OCCCN(Cc2cccc(OC(C)(C)C(=O)O)c2)c2nc3ccccc3o2)cc1` [Example 15, 2-[3-[[N-(Benzoxazol-2-yl)-N-3-(4-methoxyphenoxy)propyl]aminomethyl]phenoxy]-2-methylpropionic acid], the values for the EC50 in assay [1], in assay [2] and in assay [3] were 1500 nM, over 100000 nM and 50 nM, respectively.

For `CCC(Oc1cccc(CN(CCOc2ccccc2)c2nc3cc(F)ccc3o2)c1)C(=O)O` (stereo not drawn) [Example 229], the EC50 in assay [1] is 1800 nM; in assay [2] it was over 10000 nM; in assay [3], 6 nM.

For `CCC(Oc1cccc(CN(CCOc2ccc(F)cc2)c2nc3ccccc3o2)c1)C(=O)O` (stereo not drawn) [Example 3, 2-[3-[[N-(Benzoxazol-2-yl)-N-2-(4-fluorophenoxy)ethyl]aminomethyl]phenoxy]butyric acid], the EC50 in assay [1] is 1800 nM; in assay [2], over 100000 nM; in assay [3], 10 nM.

Regarding `CCC(Oc1cccc(CN(CCCOc2ccc(C)cc2)c2nc3ccccc3o2)c1)C(=O)O` (stereo not drawn) [Example 146], the EC50 in assay [1] is 100 nM; in assay [2], 200 nM; in assay [3], 1 nM.

On to `CCC(Oc1cccc(CCN(CCCOc2ccccc2)c2nc3cc(F)ccc3o2)c1)C(=O)O` (stereo not drawn) [Example 39, 2-[3-[2-[N-(5-Fluorobenzoxazol-2-yl)-N-3-phenoxypropyl]aminoethyl]phenoxy]butyric acid], for which the figures for the EC50 in assay [1], in assay [2] and in assay [3] were 1600 nM, 9100 nM and 80 nM, respectively.

Turning to `CC(Oc1cccc(CCN(CCOc2ccc(F)cc2)c2nc3cc(F)ccc3o2)c1)C(=O)O` (stereo not drawn) [Example 35, 2-[3-[2-[N-(5-Fluorobenzoxazol-2-yl)-N-2-(4-fluorophenoxy)ethyl]aminoethyl]phenoxy]propionic acid], the EC50 in assay [1] worked out at 1600 nM; in assay [2], 1200 nM; in assay [3], 20 nM.

Take `CC(Oc1cccc(CN(CCOc2ccc(F)cc2)c2nc3ccccc3o2)c1)C(=O)O` (stereo not drawn) [Example 186]: the EC50 in assay [1] was 10000 nM; in assay [2] it was 5500 nM; in assay [3] it was 20 nM.

For the compound `CCC(Oc1cccc(CN(CCOc2ccc(OS(C)(=O)=O)cc2)c2nc3ccccc3o2)c1)C(=O)O` (stereo not drawn) [Example 231], the results for the EC50 in assay [1], in assay [2] and in assay [3] were over 100000 nM, over 10000 nM and 13 nM, respectively.

Consider `CCC(Oc1cccc(CN(CCCOc2ccccc2)c2nc3ccccc3o2)c1)C(=O)O` (stereo not drawn) [Example 13, 2-[3-[[N-(Benzoxazol-2-yl)-N-3-phenoxypropyl]aminomethyl]phenoxy]butyric acid], for which the EC50 in assay [1] is 2000 nM; in assay [2], over 50000 nM; in assay [3] it was 10 nM.

For `CCC(Oc1cccc(CCN(CCOc2ccc(OC)cc2)c2nc3cc(OC)ccc3o2)c1)C(=O)O` (stereo not drawn) [Example 48, 2-[3-[2-[N-(5-Methoxybenzoxazol-2-yl)-N-2-(4-methoxyphenoxy)ethyl]aminoethyl]phenoxy]butyric acid], the EC50 in assay [1] turned out to be 2000 nM; in assay [2], 5200 nM; in assay [3] it was 80 nM.

With `CCC(Oc1cccc(CN(CCCOc2ccc(F)cc2)c2nc3ccccc3o2)c1)C(=O)O` (stereo not drawn) [Example 1, 2-[3-[[N-(Benzoxazol-2-yl)-N-3-(4-fluorophenoxy)propyl]aminomethyl]phenoxy]butyric acid], in assay [1], the “activation factor, hPPARδ (FIGS. 1 to 5)” value is on record as “substantially no activation”. Besides, the EC50 was 1600 nM in assay [1], over 100000 nM in assay [2] and 10 nM in assay [3]. For the same compound, the “activation factor, hPPARγ (FIGS. 1 to 5)” value in assay [2] is reported as “substantially no activation”.

With `COc1ccc(OCCCN(Cc2cccc(O[C@H](C)C(=O)O)c2)c2nc3ccccc3o2)cc1` [Example 82, (R)-2-[3-[[N-(Benzoxazol-2-yl)-N-3-(4-methoxyphenoxy)propyl]aminomethyl]phenoxy]propionic acid], the EC50 is 2500 nM in assay [1], 1200 nM in assay [2] and 2 nM in assay [3].

As for `O=C(O)COc1cccc(CN(CCCOc2ccccc2)c2nc3ccccc3o2)c1` [Example 12, 3-[[N-(Benzoxazol-2-yl)-N-3-phenoxypropyl]aminomethyl]phenoxyacetic acid], the EC50 in assay [1] is over 100000 nM; in assay [2], over 100000 nM; in assay [3], 1200 nM.

As for `CCC(Oc1cccc(CN(CCCOc2ccccc2)c2nc3cc4c(cc3o2)OCO4)c1)C(=O)O` (stereo not drawn) [Example 158], the results for the EC50 in assay [1], in assay [2] and in assay [3] were 1100 nM, 1600 nM and 5 nM, respectively.

With `Cc1ccc2oc(N(CCCOc3ccc(F)cc3)Cc3cccc(OC(C)C(=O)O)c3)nc2c1` (stereo not drawn) [Example 153], the EC50 in assay [1] turned out to be 1400 nM; in assay [2], 2500 nM; in assay [3], 3 nM.
